Source: patent US20190309309A1, “BACTERIAL CELLS WITH IMPROVED TOLERANCE TO POLYOLS” (DANMARKS TEKNISKE UNIVERSITET, priority 2016, published 2019)
Entries after “also recorded” stand apart in the source; their conditions may differ. Like-named read-outs stand apart in the source and are kept apart here.

Key:
[1] = test system: Escherichia coli K-12 MG1655; experiment: Screening for tolerance in wild-type cells: growth in varying concentrations of diols (Biolector); type: cell-based; conditions: for growth observed at maximum concentration / Maximum concentration for robust growth: K-12 MG1655; for toxicity threshold: E. coli
E. coli K-12 MG1655 = type: cell-based
K-12 MG1655 = type: cell-based, Escherichia coli
[2] = growth rate of K-12 MG1655, diol 0.5% (v/v), M9+1% glucose, 37° C.
[3] = growth rate of K-12 MG1655, diol 1% (v/v)
[4] = growth rate of K-12 MG1655, diol 2% (v/v)
[5] = growth rate of K-12 MG1655, diol 3.5% (v/v)
[6] = growth rate of K-12 MG1655, diol 5% (v/v)
[7] = growth rate of K-12 MG1655, diol 7.5% (v/v)
[8] = growth rate of K-12 MG1655, diol 10% (v/v)
[9] = lag time of K-12 MG1655, diol 0.5% (v/v)
[10] = lag time of K-12 MG1655, diol 1% (v/v)
[11] = K-12 MG1655, diol 1 % (v/v), Growth Profiler
[12] = K-12 MG1655, diol 2 % (v/v), Growth Profiler
[13] = K-12 MG1655, diol 3 % (v/v), Growth Profiler
[14] = K-12 MG1655, diol 4 % (v/v), Growth Profiler
[15] = K-12 MG1655, diol 5 % (v/v), Growth Profiler
[16] = K-12 MG1655, diol 6 % (v/v), Growth Profiler
[17] = K-12 MG1655, diol 7.5 % (v/v), Growth Profiler
[18] = lag time of K-12 MG1655, diol 2% (v/v)
[19] = lag time of K-12 MG1655, diol 3.5% (v/v)
[20] = lag time of K-12 MG1655, diol 5% (v/v)

Structure (SMILES) | μ, mean [1, 2] [h⁻¹] | μ, mean [1, 3] [h⁻¹] | μ, mean [1, 4] [h⁻¹] | μ, mean [1, 5] [h⁻¹] | μ, mean [1, 6] [h⁻¹] | μ, mean [1, 7] [h⁻¹] | μ, mean [1, 8] [h⁻¹] | tlag, mean [1, 9] [h] | tlag, mean [1, 10] [h] | tlag, mean [1, 18] [h] | tlag, mean [1, 19] [h] | other results
CCCC(O)CO (centres unmarked) [1,2-pentanediol] | 0.524 | 0.346 | 0.000 | 0.000 | 0.000 | 0.000 | 0.000 | 0.4 | 1.3 | – | – | growth observed at maximum concentration [1]: 1%
OCCCO [1,3-propanediol] | – | – | – | – | – | – | – | – | – | – | – | tlag, mean (E. coli K-12 MG1655; [11]): 5.3 h; μ, mean (E. coli K-12 MG1655; [11]): 0.670 h⁻¹; tlag, mean (E. coli K-12 MG1655; [12]): 6.1 h; μ, mean (E. coli K-12 MG1655; [12]): 0.686 h⁻¹; tlag, mean (E. coli K-12 MG1655; [13]): 7.3 h; μ, mean (E. coli K-12 MG1655; [13]): 0.603 h⁻¹; tlag, mean (E. coli K-12 MG1655; [14]): 9.6 h; μ, mean (E. coli K-12 MG1655; [14]): 0.463 h⁻¹; tlag, mean (E. coli K-12 MG1655; [15]): 12.5 h; μ, mean (E. coli K-12 MG1655; [15]): 0.277 h⁻¹; tlag, mean (E. coli K-12 MG1655; [16]): 14.7 h; μ, mean (E. coli K-12 MG1655; [16]): 0.201 h⁻¹; tlag, mean (E. coli K-12 MG1655; [17]): 24.9 h; μ, mean (E. coli K-12 MG1655; [17]): 0.118 h⁻¹; growth inhibition of E. coli K-12 MG1655 (in words) (E. coli K-12 MG1655; variable concentrations, Growth Profiler): elicited growth inhibition
CC(O)C(C)O (centres unmarked) [2,3-butanediol] | 0.944 | 0.791 | 0.754 | 0.498 | 0.265 | 0.054 | 0.000 | 2.2 | 1.8 | 2.1 | 1.6 | toxicity threshold [1]: 7.5 % (v/v); toxicity threshold ([1]; conversion of 7.5% (v/v)): 74.0 g/L; Maximum concentration for robust growth [1]: 5%; tlag, mean [1, 20]: -1.2 h
CC(O)CO (centres unmarked) [1,2-propanediol] | 0.701 | 0.662 | 0.595 | 0.442 | 0.406 | 0.579 | 0.000 | 0.9 | 0.8 | 0.8 | 0.5 | Maximum concentration for robust growth [1]: 7.5%; tlag, mean [1, 20]: 2.3 h; tlag, mean ([1]; lag time of K-12 MG1655, diol 7.5% (v/v)): 8.3 h
CSCC[C@H](N)C(=O)O [methionine, L-methionine] | – | – | – | – | – | – | – | – | – | – | – | effect on growth of K-12 MG1655 in 2,3-butanediol (K-12 MG1655): significantly restored; effect on growth of evolved strains in 1,2-propanediol (K-12 MG1655): did not have a significantly enhanced growth rate; also recorded: minimal effect; effect on growth of the wild-type strain in 1,2-propanediol (K-12 MG1655): significantly restored; also recorded: restore growth of the wild-type strain; effect on growth rate of evolved strains in 2,3-butanediol (K-12 MG1655): did not have a significantly enhanced growth rate increase
OCCCCCO [1,5-pentanediol] | 0.613 | 0.569 | 0.437 | 0.158 | 0.000 | 0.000 | 0.000 | 0.3 | 0.5 | 0.9 | -8.8 | growth observed at maximum concentration [1]: 3.5%
OCCCCO [1,4-butanediol] | – | – | – | – | – | – | – | – | – | – | – | growth inhibition of E. coli K-12 MG1655 (in words) (E. coli K-12 MG1655): elicited growth inhibition
